In experiment [1] the test system is IEC6 mausartige Enterozyten. Briefly: subG1 apoptotic fraction, propidium iodide, flow cytometry. The experiment is classed as cell-based. The note with it: 50 µg/ml, 4 Tage. As for the experimental part:
(§1) Die Zellen (IEC6 mausartige Enterozyten; Panc1 Pankreaskrebszellen; Colo205 Kolonkarzinom) wurden mit 50 µg/ml Silanen inkubiert und nach 4-tägiger Aussetzung auf DNA eingefärbt (Propidiumiodid). Die SubG1 Zellteilung wurde mittels Durchflusscytometrie bestimmt.

Another experiment deals with Colo205 Kolonkarzinom. The experiment is described as above. The experiment is classed as cell-based. The note with it: 50 µg/ml, 4 Tage. As for the experimental part:
as §1

The subject of experiment [2] is Panc1 Pankreaskrebszellen. Described as above. It counts as cell-based. The settings on record: 50 µg/ml, 4 Tage. As for the experimental part:
as §1

Another experiment relates to T47D (Brustkrebs). Briefly: MTT test, triplicate, two-fold dilutions. The experiment is classed as cell-based. The note with it: Homo sapiens, T47D, read-out: IC50 T47D. Here is the method:
(§2) Die Silan wurden in Ethanol aufgelöst und in Zellkulturmedien in Konzentrationen von bis zu 500 µg/ml resuspendiert. Es wurden MTT Tests in dreifacher Ausführung durchgeführt, für welche doppelte Lösungen (7 Schritte) und colo205 (Kofon-Karzinom), BxPC3 (pankreatisches Adenokarzinom) sowie T47D (Brustkrebs) benutzt wurden.
(In general: Tetrazolium assays rely on reduction of a dye to a coloured formazan, in cell work by metabolically active cells.)

Experiment [3] relates to BxPC3 (pankreatisches Adenokarzinom). Briefly: MTT test, triplicate, two-fold dilutions. The experiment is classed as cell-based. The settings on record: Homo sapiens, BXPC-3, read-out: IC50 BxPC3. Here is the method: as §2
For the next experiment, the system named is colo205 (Kofon-Karzinom). In words: MTT test, triplicate, two-fold dilutions. It counts as cell-based. The note with it: Homo sapiens, COLO 205, read-out: IC50 Colo205. Here is the method: as §2
A further experiment has as its system Normale Zellen. Briefly: Mean IC50 over all normal cell lines. It counts as cell-based. The settings on record: read-out: IC50 Normale Zellen (Durchschnitt ± SD). As for the experimental part: (§3) Die Silane 1, 5, 9, 10, 11, 13, 15, 16 wurden in Ethanol gelöst und in MTT Assays in einer anfänglichen Konzentration von 200 µg/ml (5 Lösungsschritte 200 - 12.5 µg/ml) verwendet. Die Platten wurde für eine Dauer.von 4 Tagen inkubiert und die Entwicklungsfähigkeit mithilfe des EZ4U Test bestimmt. Die IC50 Werte wurden ausgehend von Dosierungs-Reaktions-Linien berechnet Zelllinien: Colo 205 and HT29 - Kolonkarzinom; BxPC3 and MIAPaCa2 - Pankreaskrebs; CRO2B - karzinoid, A431 Epidermalkarzinom; normale Zellen: WI38 - humane embryonale Fibroblasten; NIH3T3 - mausartige Fibroblasten; IEC6 - mausartige Enterozyten.
(§4) Mittelwerte-IC50 für alle Krebs- oder normalen Zelllinien: […]

The next experiment concerns HT29 - Kolonkarzinom. Briefly: MTT assay / EZ4U test, 4 days. It counts as cell-based. The note with it: Homo sapiens, HT-29, read-out: IC50 HT29. Here is the method:
as §3

The next experiment has as its system BxPC3 - Pankreaskrebs. In words: MTT assay / EZ4U test, 4 days. The note with it: Homo sapiens, BXPC-3, read-out: IC50 BxPC3. The experiment is classed as cell-based. As for the experimental part: as §3
For the next experiment, the system named is CRO2B - karzinoid. Briefly: MTT assay / EZ4U test, 4 days. It counts as cell-based. The settings on record: read-out: IC50 CR02B. Here is the method:
as §3

The subject of experiment [4] is WI38 - humane embryonale Fibroblasten. Briefly: MTT assay / EZ4U test, 4 days. The experiment is classed as cell-based. The note with it: Homo sapiens, WI-38, read-out: IC50 WI38. Here is the method: as §3
The test system of experiment [5] is NIH3T3 - mausartige Fibroblasten. Briefly: MTT assay / EZ4U test, 4 days. The note with it: Mus musculus, NIH3T3, read-out: IC50 NIH3T3. The experiment is classed as cell-based. As for the experimental part:
as §3

In another experiment the test system is A431 Epidermalkarzinom. In words: MTT assay / EZ4U test, 4 days. The note with it: Homo sapiens, A-431, read-out: IC50 A431. The experiment is classed as cell-based. As for the experimental part: as §3
Experiment [6] has as its system IEC6 - mausartige Enterozyten. In words: MTT assay / EZ4U test, 4 days. The experiment is classed as cell-based. The settings on record: Rattus norvegicus, IEC-6, read-out: IC50 IEC6. As for the experimental part:
as §3

For another experiment, the system named is MIAPaCa2 - Pankreaskrebs. Briefly: MTT assay / EZ4U test, 4 days. It counts as cell-based. The settings on record: Homo sapiens, MIA PaCa-2, read-out: IC50 MlAPaCa2. As for the experimental part: as §3
Another experiment has as its system Krebszellen. In words: Mean IC50 over all cancer cell lines. The experiment is classed as cell-based. The note with it: read-out: IC50 Krebszellen (Durchschnitt ± SD). As for the experimental part: as §3, §4
For a further experiment, the system named is Lymphome. In words: Effect on lymphomas.

Values after ≈ are worked out from the molar mass of the structure shown. Numbered stars: 1 amine (or outer) side, 2 acyl side, 3 side chain; on linkers, the order of the positions; unused ones are H or OH. Bridge positions count the residues as written; N and C are the ends. Peptide text beside a SMILES is read from it. I, II: the chains in the order shown. X2 = c1ccc([Si](O[*:1])(O[*:2])c2ccccc2)cc1; X1 = C[Si](C)(O[*:1])O[*:2]

As a reminder, the IC50 is the point on the concentration scale where inhibition reaches its midpoint. As for `CCCCCCCCCCCCCCCC(=O)O[Si](CC)(CC)OC(=O)CCCCCCCCCCCCCCC` [Si11, Di (hexadecanoyloxy) diethylsilan], the “subG1 apoptotische Zellteilung IEC6” value in experiment [1] is 7.0 ± 0,14. In addition, in the experiment with Colo205 Kolonkarzinom, the “subG1 apoptotische Zellteilung Colo205” value is on record as 3,3 ± 0,14. For the same compound, in experiment [2], the “subG1 apoptotische Zellteilung Panc1” value is 37,7 ± 1,8. In addition, the concentration for half-maximal inhibition (IC50) amounted to 7 µg/mL (≈ 11.7 µM) with T47D (Brustkrebs); 10 µg/mL (≈ 16.7 µM) in [3]; 300 µg/mL (≈ 502 µM) in the experiment with colo205 (Kofon-Karzinom); 23.3 µg/mL (≈ 39 µM) with Normale Zellen; 23.1 µg/mL (≈ 38.7 µM) with HT29 - Kolonkarzinom; 20 µg/mL (≈ 33.5 µM) with BxPC3 - Pankreaskrebs. Also, the IC50 came out at 18.9 µg/mL (≈ 31.7 µM) in the experiment on CRO2B - karzinoid; 23.7 µg/mL (≈ 39.7 µM) in experiment [4]; 25 µg/mL (≈ 41.9 µM) in [5]; 21.9 µg/mL (≈ 36.7 µM) in the experiment with A431 Epidermalkarzinom; 21.2 µg/mL (≈ 35.5 µM) in experiment [6]; 82.5 µg/mL (≈ 138 µM) in the experiment with MIAPaCa2 - Pankreaskrebs. The IC50 in the experiment on Krebszellen was found to be 21.1 µg/mL (≈ 35.3 µM).

In the case of `N[C@@H](Cc1ccccc1)C(=O)N[C@@H](Cc1ccccc1)C(=O)N[C@@H](Cc1ccccc1)C(=O)N[C@@H](Cc1ccccc1)C(=O)N[C@@H](Cc1ccccc1)C(=O)N[C@@H](Cc1ccccc1)C(=O)N[C@@H](Cc1ccccc1)C(=O)N[C@@H](Cc1ccccc1)C(=O)O[Si](OC(=O)[C@H](Cc1ccccc1)NC(=O)[C@H](Cc1ccccc1)NC(=O)[C@H](Cc1ccccc1)NC(=O)[C@H](Cc1ccccc1)NC(=O)[C@H](Cc1ccccc1)NC(=O)[C@H](Cc1ccccc1)NC(=O)[C@H](Cc1ccccc1)NC(=O)[C@@H](N)Cc1ccccc1)(c1ccccc1)c1ccccc1` [Diphenyl bis(octaphenylalanyl)silylester] (I: H-FFFFFFFF / II: H-FFFFFFFF; linker I:C-II:C via X2), in the experiment with Plasmozytome, the “Wirkung auf Plasmozytome” value is recorded as “zeigen eine Wirkung”.

With `N[C@@H](Cc1ccccc1)C(=O)N[C@@H](Cc1ccccc1)C(=O)N[C@@H](Cc1ccccc1)C(=O)N[C@@H](Cc1ccccc1)C(=O)N[C@@H](Cc1ccccc1)C(=O)N[C@@H](Cc1ccccc1)C(=O)N[C@@H](Cc1ccccc1)C(=O)N[C@@H](Cc1ccccc1)C(=O)N[C@@H](Cc1ccccc1)C(=O)N[C@@H](Cc1ccccc1)C(=O)O[Si](OC(=O)[C@H](Cc1ccccc1)NC(=O)[C@H](Cc1ccccc1)NC(=O)[C@H](Cc1ccccc1)NC(=O)[C@H](Cc1ccccc1)NC(=O)[C@H](Cc1ccccc1)NC(=O)[C@H](Cc1ccccc1)NC(=O)[C@H](Cc1ccccc1)NC(=O)[C@H](Cc1ccccc1)NC(=O)[C@H](Cc1ccccc1)NC(=O)[C@@H](N)Cc1ccccc1)(c1ccccc1)c1ccccc1` [Diphenyl bis(decaphenylalanyl) silylester] (I: H-FFFFFFFFFF / II: H-FFFFFFFFFF; linker I:C-II:C via X2), in the experiment on Plasmozytome, the “Wirkung auf Plasmozytome” value is reported as “zeigen eine Wirkung”.

`C[Si](C)(OC(=O)[C@H](Cc1ccccc1)NC(=O)[C@H](Cc1ccccc1)NC(=O)[C@H](Cc1ccccc1)NC(=O)[C@H](Cc1ccccc1)NC(=O)[C@H](Cc1ccccc1)NC(=O)[C@H](Cc1ccccc1)NC(=O)[C@H](Cc1ccccc1)NC(=O)[C@@H](N)Cc1ccccc1)OC(=O)[C@H](Cc1ccccc1)NC(=O)[C@H](Cc1ccccc1)NC(=O)[C@H](Cc1ccccc1)NC(=O)[C@H](Cc1ccccc1)NC(=O)[C@H](Cc1ccccc1)NC(=O)[C@H](Cc1ccccc1)NC(=O)[C@H](Cc1ccccc1)NC(=O)[C@@H](N)Cc1ccccc1` [Dimethyl bis(octaphenylalanyl)silylester] (I: H-FFFFFFFF / II: H-FFFFFFFF; linker I:C-II:C via X1): in the experiment on Lymphome, the “Wirkung auf Lymphome” value is on record as “zeigen eine Wirkung”.

With `N[C@@H](Cc1ccccc1)C(=O)N[C@@H](Cc1ccccc1)C(=O)N[C@@H](Cc1ccccc1)C(=O)N[C@@H](Cc1ccccc1)C(=O)O[Si](OC(=O)[C@H](Cc1ccccc1)NC(=O)[C@H](Cc1ccccc1)NC(=O)[C@H](Cc1ccccc1)NC(=O)[C@@H](N)Cc1ccccc1)(c1ccccc1)c1ccccc1` [Diphenyl bis(tetraphenylalanyl)silylester], the “Wirkung auf Plasmozytome” value in the experiment on Plasmozytome is “zeigen eine Wirkung”.

Take `NCC(=O)NCC(=O)NCC(=O)NCC(=O)O[Si](OC(=O)CNC(=O)CNC(=O)CNC(=O)CN)(c1ccccc1)c1ccccc1` [Diphenyl bis(tetraglycyl)silylester]: the “Wirkung auf Plasmozytome” value in the experiment on Plasmozytome was “zeigen eine Wirkung”.

For `N[C@@H](Cc1ccccc1)C(=O)N[C@@H](Cc1ccccc1)C(=O)N[C@@H](Cc1ccccc1)C(=O)O[Si](OC(=O)[C@H](Cc1ccccc1)NC(=O)[C@H](Cc1ccccc1)NC(=O)[C@@H](N)Cc1ccccc1)(c1ccccc1)c1ccccc1` [Diphenyl bis(triphenylalanyl)silylester], the “Wirkung auf Plasmozytome” value in the experiment with Plasmozytome was “zeigen eine Wirkung”.

Take `N[C@@H](Cc1ccccc1)C(=O)N[C@@H](Cc1ccccc1)C(=O)N[C@@H](Cc1ccccc1)C(=O)N[C@@H](Cc1ccccc1)C(=O)N[C@@H](Cc1ccccc1)C(=O)N[C@@H](Cc1ccccc1)C(=O)N[C@@H](Cc1ccccc1)C(=O)N[C@@H](Cc1ccccc1)C(=O)N[C@@H](Cc1ccccc1)C(=O)O[Si](OC(=O)[C@H](Cc1ccccc1)NC(=O)[C@H](Cc1ccccc1)NC(=O)[C@H](Cc1ccccc1)NC(=O)[C@H](Cc1ccccc1)NC(=O)[C@H](Cc1ccccc1)NC(=O)[C@H](Cc1ccccc1)NC(=O)[C@H](Cc1ccccc1)NC(=O)[C@H](Cc1ccccc1)NC(=O)[C@@H](N)Cc1ccccc1)(c1ccccc1)c1ccccc1` [Diphenyl bis(nonaphenylalanyl)silylester] (I: H-FFFFFFFFF / II: H-FFFFFFFFF; linker I:C-II:C via X2): in the experiment with Plasmozytome, the “Wirkung auf Plasmozytome” value is on record as “zeigen eine Wirkung”.

As to `N[C@@H](Cc1ccccc1)C(=O)N[C@@H](Cc1ccccc1)C(=O)N[C@@H](Cc1ccccc1)C(=O)N[C@@H](Cc1ccccc1)C(=O)N[C@@H](Cc1ccccc1)C(=O)N[C@@H](Cc1ccccc1)C(=O)N[C@@H](Cc1ccccc1)C(=O)O[Si](OC(=O)[C@H](Cc1ccccc1)NC(=O)[C@H](Cc1ccccc1)NC(=O)[C@H](Cc1ccccc1)NC(=O)[C@H](Cc1ccccc1)NC(=O)[C@H](Cc1ccccc1)NC(=O)[C@H](Cc1ccccc1)NC(=O)[C@@H](N)Cc1ccccc1)(c1ccccc1)c1ccccc1` [Diphenyl bis(heptaphenylalanyl)silylester] (I: H-FFFFFFF / II: H-FFFFFFF; linker I:C-II:C via X2), the “Wirkung auf Plasmozytome” value in the experiment on Plasmozytome was “zeigen eine Wirkung”.

In the case of `N[C@@H](Cc1ccccc1)C(=O)N[C@@H](Cc1ccccc1)C(=O)N[C@@H](Cc1ccccc1)C(=O)N[C@@H](Cc1ccccc1)C(=O)N[C@@H](Cc1ccccc1)C(=O)N[C@@H](Cc1ccccc1)C(=O)O[Si](OC(=O)[C@H](Cc1ccccc1)NC(=O)[C@H](Cc1ccccc1)NC(=O)[C@H](Cc1ccccc1)NC(=O)[C@H](Cc1ccccc1)NC(=O)[C@H](Cc1ccccc1)NC(=O)[C@@H](N)Cc1ccccc1)(c1ccccc1)c1ccccc1` [Diphenyl bis(hexaphenylalanyl)silylester] (I: H-FFFFFF / II: H-FFFFFF; linker I:C-II:C via X2), the “Wirkung auf Plasmozytome” value in the experiment with Plasmozytome was “zeigen eine Wirkung”.

For Diethyl bis(biphenylalanyl)silylester, the “Wirkung auf Lymphome” value with Lymphome is “zeigen eine Wirkung”.

Source of the values: patent EP1948196B1, “USE OF TETRAORGANOSILICON COMPOUNDS” (Salama, Zoser B., priority 2005, dated 2007).
